Results from patent publication US20250332173A1, “COMPOUNDS AND METHODS FOR MODULATING NUCLEIC ACID SPLICING” (REMIX THERAPEUTICS INC., priority 2021, published 2025).
Like-named read-outs stand apart in the source and are kept apart here.

Columns and labels:
Target C = test: RT-qPCR splicing assay panel, Target C canonical junction (CJ) mRNA; type: cell-based, human; details: Homo sapiens
Method in brief: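 Exposure: 24 h, 37 °C, 11-point 3-fold dilutions from 10 uM final, DMSO at or below 0.25%, in A673 or K562 cells. Detection: cell-lysate RT-qPCR of canonical junction mRNA relative to GAPDH, GUSB or PPIA.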

MYB mRNA = test: RT-qPCR splicing assay, MYB canonical junction (CJ) and alternative junction (AJ) mRNA; type: cell-based, human; details: Homo sapiens; for AC50: increase in MYB alternative junction (AJ) mRNA, read-out: MYB AJ AC50
Method in brief: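 Following a 24-hour incubation of A673 or K562 cells with serially diluted compound (3-fold steps, highest final 10 uM), the lysates undergo cDNA synthesis plus qPCR. Canonical and alternative junctions are each quantified against PPIA, GAPDH or GUSB.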

[1] = Table 5 panel, canonical junction qPCR, compound concentration having 50% response in CJ decrease, read-out: Target C IC50 (decrease in CJ mRNA levels)
[2] = Table 5 panel, canonical junction qPCR, compound concentration having 50% response in CJ decrease, read-out: MYB IC50 (decrease in CJ mRNA levels)
[3] = decrease in MYB canonical junction (CJ) mRNA, RT-qPCR, read-out: MYB CJ IC50
[4] = canonical junction qPCR panel, Table 5, read-out: Target C (decrease in CJ mRNA levels, IC50)
[5] = canonical junction qPCR panel, Table 5, read-out: MYB (decrease in CJ mRNA levels, IC50)

Structure (SMILES)	IC50 (Target C; [1]) [nM]	IC50 (MYB mRNA; [2]) [nM]	IC50 (MYB mRNA; [3]) [nM]	AC50 (MYB mRNA; RT-qPCR) [nM]	IC50 (Target C; [4]) [nM]	IC50 (MYB mRNA; [5]) [nM]
Cc1c(O)c(-c2ncc3c(=O)n(C4CCNC4)ccc3n2)cc2cn(C)nc12 (centres unmarked) [Compound 1222]	> 10000	100 to 1000	100 to 1000	100 to 1000		
Cn1cc2cc(-c3ncc4c(=O)n(C5CCNC5)ccc4n3)c(O)c(F)c2n1 (centres unmarked) [Compound 1223]	1000 to 10000	100 to 1000	100 to 1000	100 to 1000		
Cc1cn2cc(-c3ncc4c(=O)n(C5CCNCC5)ccc4n3)c(O)c(C)c2n1 [Compound 1225]	100 to 1000	100 to 1000	100 to 1000	100 to 1000		
Cc1cn2cc(-c3ncc4c(=O)n(C5CCNC5)ccc4n3)c(O)c(C)c2n1 (centres unmarked) [Compound 1227]	> 10000	1000 to 10000	1000 to 10000	1000 to 10000		
Cc1cn2cc(-c3ncc4c(=O)n([C@@H]5CCNC5)ccc4n3)cc(F)c2n1 [Compound 1228]	> 10000	100 to 1000	1000 to 10000	100 to 1000		
Cn1cc2cc(-c3ccc4c(=O)n(C5CCNCC5)ccc4n3)cc(F)c2n1 [Compound 1231]			100 to 1000	100 to 1000	100 to 1000	100 to 1000
Cc1cn2cc(-c3ccc4c(=O)n(C5CCNCC5)ccc4n3)nc(C)c2n1 [Compound 1238, 2-(2,8-dimethylimidazo[1,2-a]pyrazin-6-yl)-6-(piperidin-4-yl)-1,6-naphthyridin-5(6H)-one]			1000 to 10000	> 10000	> 10000	> 10000
Cc1cn2cc(-c3ccc4c(=O)n(C5CCNCC5)ccc4n3)c(O)cc2n1 [Compound 1240]			1000 to 10000	1000 to 10000	> 10000	1000 to 10000
Cc1cn2cc(-c3ccc4c(=O)n(C5CCNCC5)ccc4n3)cc(C)c2n1 [Compound 1241, 2-(2,8-dimethylimidazo[1,2-a]pyridin-6-yl)-6-(piperidin-4-yl)-1,6-naphthyridin-5(6H)-one]			< 100	< 100	1000 to 10000	< 100
Cn1cc2cc(-c3ccc4c(=O)n(C5CCNC6(CC6)C5)ccc4n3)c(O)cc2n1 (centres unmarked) [Compound 1242]			< 100	< 100	100 to 1000	< 100
COc1c(-c2ccc3c(=O)n(C4CCNCC4)ccc3n2)cc2cn(C)nc2c1C [Compound 1243]			> 10000	> 10000	> 10000	> 10000
Cn1cc2cc(-c3ccc4c(=O)n([C@@H]5CCNC6(CC6)C5)ccc4n3)c(O)cc2n1 [Compound 1246]			< 100	< 100	1000 to 10000	< 100
Cc1cn2nc(-c3ccc4c(=O)n(C5CCNCC5)ncc4n3)cc(C)c2n1 [Compound 1247]			< 100	< 100	100 to 1000	< 100
Cc1c(O)c(-c2ccc3c(=O)n(C4CCNCC4)cc(C)c3n2)cc2cn(C)nc12 [Compound 1284]			< 100	< 100	100 to 1000	< 100
Cc1cn(C2CCNCC2)c(=O)c2ccc(-c3cc4cn(C)nc4c(F)c3O)nc12 [Compound 1285]			< 100	< 100	< 100	< 100
Cn1cc2nc(-c3ccc4c(=O)n(C5CCNCC5)ccc4n3)c(O)cc2n1 [Compound 1296]			< 100	< 100	100 to 1000	< 100

Structure (SMILES)	IC50 (Target C; [1]) [nM]	IC50 (MYB mRNA; [2]) [nM]	IC50 (MYB mRNA; [3]) [nM]	AC50 (MYB mRNA; RT-qPCR) [nM]	IC50 (Target C; [4]) [nM]	IC50 (MYB mRNA; [5]) [nM]
Cc1cn2cc(-c3ccc4c(=O)n(C5CCNCC5)ccc4n3)cc(C#N)c2n1 [Compound 1297]			100 to 1000	100 to 1000	100 to 1000	100 to 1000
Cc1cn2cc(-c3ccc4c(=O)n(C5CCNC5)ccc4n3)cc(F)c2n1 (centres unmarked) [Compound 1299]			1000 to 10000	100 to 1000	> 10000	100 to 1000
Cc1c(O)c(-c2ncc3c(=O)n(C4CCC(N)CC4)ccc3n2)cc2cn(C)nc12 (centres unmarked) [Compound 1300, 6-((1s,4s)-4-aminocyclohexyl)-2-(6-hydroxy-2,7-dimethyl-2H-indazol-5-yl)pyrido[4,3-d]pyrimidin-5(6H)-one]			100 to 1000	100 to 1000	1000 to 10000	100 to 1000
Cc1cn2cc(-c3ncc4c(=O)n(C5CCNCC5)ccc4n3)cc(C#N)c2n1 [Compound 1301]			100 to 1000	100 to 1000	1000 to 10000	100 to 1000
Cc1cn2cc(-c3ccc4c(=O)n(C5CCNC5)ccc4n3)c(O)c(C)c2n1 (centres unmarked) [Compound 1302]			> 10000	> 10000	> 10000	> 10000
Cc1c(O)c(-c2ncc3c(=O)n(N4CCNCC4)ccc3n2)cc2cn(C)nc12 [Compound 1303]			< 100	100 to 1000	100 to 1000	100 to 1000
Cc1c(O)c(-c2ncc3c(=O)n(C4CCN(C)CC4)ccc3n2)cc2cn(C)nc12 [Compound 1304]			100 to 1000	100 to 1000	1000 to 10000	100 to 1000
Cc1c(O)c(-c2ncc3c(=O)n(C4CNC4)ccc3n2)cc2cn(C)nc12 [Compound 1305, 6-(azetidin-3-yl)-2-(6-hydroxy-2,7-dimethyl-indazol-5-yl)pyrido[4,3-d]pyrimidin-5-one]			1000 to 10000	1000 to 10000	> 10000	1000 to 10000
Cn1cc2cc(-c3ccc4c(=O)n(C5CCNC6(CC6)C5)ncc4n3)c(O)cc2n1 (centres unmarked) [Compound 1306]			100 to 1000	100 to 1000	100 to 1000	100 to 1000
CN1CCC(n2ncc3nc(-c4cc5cn(C)nc5cc4O)ccc3c2=O)CC1 [Compound 1307]			1000 to 10000	1000 to 10000	1000 to 10000	1000 to 10000
CCN1CCC(n2ncc3nc(-c4cc(C)c5nc(C)cn5n4)ccc3c2=O)CC1 [Compound 1308]			100 to 1000	100 to 1000	100 to 1000	100 to 1000
Cc1cn2nc(-c3ccc4c(=O)n(C5CCN(CCF)CC5)ncc4n3)cc(C)c2n1 [Compound 1309]			100 to 1000	100 to 1000	100 to 1000	100 to 1000
CCN1CCC(n2ncc3nc(-c4cc5cn(C)nc5cc4O)ccc3c2=O)CC1 [Compound 1310]			1000 to 10000	1000 to 10000	1000 to 10000	1000 to 10000
Cc1cn2nc(-c3ccc4c(=O)n(C5CCN(C)CC5)ncc4n3)cc(C)c2n1 [Compound 1311]			100 to 1000	100 to 1000	100 to 1000	100 to 1000
Cc1c(O)c(-c2ncc3c(=O)n(C45CCC(N)(CC4)C5)ccc3n2)cc2cn(C)nc12 [Compound 1428]			100 to 1000	100 to 1000	1000 to 10000	100 to 1000
Cc1c(O)c(-c2ncc3c(=O)n([C@@H]4C[C@H]5CC[C@@H](C4)N5)ccc3n2)cc2cn(C)nc12 [Compound 1429, 6-[(1S,5R)-8-azabicyclo[3.2.1]octan-3-yl]-2-(6-hydroxy-2,7-dimethyl-indazol-5-yl)pyrido[4,3-d]pyrimidin-5-one]			< 100	< 100	1000 to 10000	< 100
